Source: patent US20120122935A1, “COMPOSITIONS AND METHODS FOR TREATING NECROTIZING ENTEROCOLITIS” (NATIONWIDE CHILDREN'S HOSPITAL, INC., priority 2007, published 2012)
Marks after values point to notes of the source that are not given here.

Assays:
[1] = test system: newborn rat model of NEC; assay: newborn rat model of NEC (formula feeding, hypoxia, hypothermia, LPS); type: in vivo; conditions: for Percent of Pups with NEC (any grade) / Percent of Pups with NEC Grade >2: one oral dose each day, n=8; for overall survival of pups exposed to the rat NEC model: nicotinamide treated vs control pups, FIG. 8
Excerpt: We have established valuable preclinical animal models that mimic intestinal injury in NEC. (Caplan M S, Hedlund E, Adler L, et al. Role of asphyxia and feeding in a neonatal rat model of necrotizing enterocolitis. Pediatr Pathol. November-December 1994; 14(6):1017-1028.) The model involves exposing neonatal rat pups to hypoxia, hypothermia, and formula feeding, leading to physiological stress and intestinal injury that pathologically is very similar to NEC in infants. Pups are delivered by cesarean section at E20 from timed pregnant dams. Pups are fed every 3 h with one skipped feed at 4 am (7 times/day) by oral gavage with 100 ul of a hypertonic formula (Similac and Esbilac). At 8 h post-delivery, pups are treated with 2 mg/kg LPS orally with feeding. Beginning on DOL 1, pups are fed every 3 h and subjected to hypoxic (2 min in 100% nitrogen) and hypothermal (10 min at 4° C.) stress twice daily immediately after feeds. Pups are sacrificed at DOL 4, or when discomfort warrants. Upon sacrifice, the distal ileum is collected in two sections. One section is immediately fixed in 10% neutral buffered formalin, and the other is snap-frozen in liquid nitrogen. Tissues are fixed for 48 h before histological processing and embedding in paraffin.
Each photomicrograph represents a different severity grading score of intestinal injury in this model as follows: (A)=Grade 0 or normal, (B)=Grade 1 or minimal intestinal damage, (C)=Grade 2 or minimal/modest intestinal damage, (D)=Grade 3 or moderate intestinal injury, (E) Grade 4 or severe intestinal injury. This system is based on the previously published intestinal injury grading system for the newborn rat intestinal model of NEC induced by formula feeding-hypoxia-hypothermia.

[2] = test system: Human fetal intestinal epithelial cells (FHS741NT); assay: in vitro model of immature intestinal wound restitution (scrape wound plus LPS); type: cell-based; conditions: 50 mg/ml nicotinamide after wounding and LPS administration, FIG. 14
Method: We have established cell culture conditions for neonatal human intestinal epithelial cells (IEC), which we have developed as a platform for investigating cellular responses and identifying potential protection strategies. Human fetal intestinal epithelial cells (FHS741NT), passage seven or less, were seeded (40,000 cells/ml) in poly-1-lysine coated 8-chamber slides (Labtek II; Nunc, Rochester, N.Y.) in media (DMEM containing 10% FBS, L-glutamine (2 mM), EGF (30 ng/ml), and insulin (10 μg/ml)) and allowed to reach confluence. A wound was created in the cell monolayer using a specific cell scraper device attached to a microscope. The microscope stage controls allow the creation of a reproducible straight wound in each slide chamber (width 500 μm). After wounding, media was replaced with media (DMEM with 10% FBS, L-glutamine (2 mM)) containing the appropriate treatment compound. […]
Digital images of wounds were captured using a 10× objective on an inverted microscope (Olympus, Melville, N.Y.) with an attached digital camera (Diagnostic Instruments, Sterling Heights, Mich.). […] For each subsequent image, the AOI was placed over the position of the original wound and the area occupied by cells was measured. […] Results were expressed as mean % closure where % closure=area of wound occupied by cells/area of original wound. […]

[3] = doses of 500 mg/kg or more in animal preparations; cited from earlier work

## NC(=O)c1cccnc1 [Nicotinamide, nicotinamide]
[1]; 50 mg/kg nicotinamide
  Percent of Pups with NEC (any grade): 12.5%*
  Percent of Pups with NEC Grade >2: 12.5%
[1]; 500 mg/kg nicotinamide
  Percent of Pups with NEC (any grade): 0%*
  Percent of Pups with NEC Grade >2: 0%
[1]
  overall survival of pups exposed to the rat NEC model: improved overall survival
[1]; listed as nicotinamide
  overall survival of pups exposed to the rat NEC model: improves survival
[1]; one oral dose daily at 500 mg/kg
  evidence of NEC Grade 2 or greater: no evidence of NEC Grade 2 or greater
[1]; one oral dose of 50 or 500 mg/kg each day
  protection against development of NEC / intestinal injury: strikingly protective against the development of any NEC
[2]
  wound healing (epithelial restitution): improves wound healing
[2]; listed as nicotinamide
  wound healing (epithelial restitution): improved wound healing
[3]
  reported toxicities: little or no reported toxicities
